Source: patent US9914955B2, “Genetically encoded FRET-based MMP-9 activity biosensor and use thereof” (Instytut Biologii Doświadczalnej im. Marcelego Nenckiego …, priority 2013, dated 2018)

Assays:
HEK293 cell lysate = assay: Baseline cleavage of the biosensor in untreated HEK293 lysate, western blot; assay type: biochemical
Procedure: Two days post-transfection HEK293 cells were washed one with PBS, scraped from the plate and lysed for 1 h at 4° C. with the following buffer: 50 mM Tris-Cl pH 7.5, 1% Triton X-100, 10 mM CaCl2, 0.02% NaN3, 1 μM ZnCl2. The lysis was performed without protease inhibitors since it was feared that they might block the activity of our auto-activating MMP-9. The lysate was then centrifuged at 13400 rpm for 15′ at 4° C. to remove cell debris. Equal amount of the cleared lysate were used in the subsequent reactions. […] GM6001 inhibitor was used in 25 μM final concentration. Reactions were stopped at either 30′, 1 h, 4 h or after overnight incubation at 37° C. with the addition of SDS-PAGE Sample Buffer and heating to 100° C. for 10 minutes. Sensor was detected on Western Blot with the anti-GFP antibody.

[1] = test system: human auto-activating MMP-9; assay: In vitro cleavage of the biosensor in HEK293 lysate by auto-activating MMP-9, western blot; assay type: biochemical; settings: inhibitor 25 μM final concentration

`CNC(=O)[C@H](Cc1c[nH]c2ccccc12)NC(=O)[C@@H](CC(=O)NO)CC(C)C` [GM6001] was tested. Which “effect of inhibitor on baseline cleavage of the biosensor” value (HEK293 cell lysate) did it give?
The value was “at least partially, blocked”.

And the “effect of inhibitor on biosensor cleavage by auto-activating MMP-9” value [1]?
The value was “blocked”.
